Tested on in the first series: not given
Test: not given
Details: not given
A word on the melting point: it is the temperature of the solid-liquid transition. Regarding `CCCCCCc1ccc(-c2c(C#N)nn(C(C)(C)Cc3ccc(C)cc3)c2O)cc1` [Compound No. 4-86, 4-(4-Hexylphenyl)-5-hydroxy-1-(2-methyl-1-(p-tolyl)propan-2-yl)-1H-pyrazole-3-carbonitrile], the melting point was 140 to 142 °C.
Molecule `CCCCCCc1ccc(-c2cnn(C(C)(C)Cc3ccc(C)cc3)c2O)cc1` [Compound No. 4-90, 4-(4-Hexylphenyl)-1-(2-methyl-1-(p-tolyl)propan-2-yl)-1H-pyrazol-5-ol] yielded a melting point of 149 to 151 °C.

The subject of the next series is CD34+CD38- cells. Put plainly: Assay Example 3: expansion of CD34+CD38- cells using human cord blood-derived CD34+ cells (Table 22). The format is cell-based. The following applies: based on number of CD34+CD38- cells in absence of compound; 0.01 to 10 μg/mL compound; 100 ng/mL SCF and 20 ng/mL TPO; 7 days. On the procedure:
Human cord blood-derived CD34^+ cells purchased from the same supplier as in Assay Example 1 were plated on a 24-well plate (Corning) (10000 cells/1 mL/well). As the culture medium, StemSpan SFEM (StemCell Technologies) containing 100 ng/mL SCF (Wako Pure Chemical Industries) in terms of final concentration and 20 ng/mL TPO (PeproTech) in terms of final concentration was used, and Compounds Nos. 1-01 to 4-91 dissolved in dimethyl sulfoxide were added in an amount of 0.1% (v/v) to a final concentration of 0.01 to 10 μg/mL. As a negative control, the medium containing 0.1% (v/v) dimethyl sulfoxide was used.
After the cells were incubated in liquid culture at 37° C. for 7 days in a CO2 incubator (5% CO2), the number of viable cells was counted by trypan blue assay. The number of CD34^+CD38^− cells was calculated in the same manner as in Assay Example 1.
For the molecule `CCCCCCc1ccc(-c2c(C(C)C)nn(C(C)(C)Cc3ccc(C)cc3)c2O)cc1` [Compound No. 3-07, 4-(4-hexylphenyl)-3-isopropyl-1-(2-methyl-1-p-tolylpropan-2-yl)-1H-pyrazol-5-ol], the Expansion efficiency entry is given as “A (A for expansion efficiencies of 4 or greater)”.
On to `CC(C)C1=NN(C(C)(C)Cc2ccc(Br)cc2)C(=O)C1` [Compound No. 3-12, 1-(1-(4-bromophenyl)-2-methylpropan-2-yl)-3-isopropyl-1H-pyrazol-5(4H)-one], for which the Expansion efficiency entry is “B (B for expansion efficiencies of at least 3 and less than 4)”.
`CC(C)(Cc1ccccc1)N1N=C(c2ccccc2)CC1=O` [Compound No. 3-16, 1-(2-methyl-1-phenylpropan-2-yl)-3-phenyl-1H-pyrazol-5(4H)-one]: the Expansion efficiency result is “A (A for expansion efficiencies of 4 or greater)”.
The same measure, in the same setting: with `CC(C)C1=NN(C(C)(C)Cc2ccccc2)C(=O)C1Br` (stereo not shown) [Compound No. 3-47, 4-bromo-3-isopropyl-1-(2-methyl-1-phenylpropan-2-yl)-1H-pyrazol-5(4H)-one] the entry was “C (C for expansion efficiencies of at least 1.5 and less than 3)”.
With `COC(=O)CC1=NN(C(C)(C)c2ccccc2)C(=O)C1` [Compound No. 4-01, methyl 2-(5-oxo-1-(2-phenylpropan-2-yl)-4,5-dihydro-1H-pyrazol-3-yl)acetate], the Expansion efficiency entry was “C (C for expansion efficiencies of at least 1.5 and less than 3)”.
Consider `COC(=O)c1ccc(-c2c(C(C)C)nn(C(C)(C)Cc3ccccc3)c2O)cc1` [Compound No. 4-23, methyl 4-(5-hydroxy-3-isopropyl-1-(2-methyl-1-phenylpropan-2-yl)-1H-pyrazol-4-yl)benzoate], for which the Expansion efficiency entry is given as “A (A for expansion efficiencies of 4 or greater)”.
Turning to `CCCCCCc1ccc(-c2c(C#N)nn(C(C)(C)Cc3ccc(C)cc3)c2O)cc1` [Compound No. 4-86, 4-(4-Hexylphenyl)-5-hydroxy-1-(2-methyl-1-(p-tolyl)propan-2-yl)-1H-pyrazole-3-carbonitrile], the Expansion efficiency result was “C (C for expansion efficiencies of at least 1.5 and less than 3)”.
For the molecule `CON=C(C)c1c(C(C)C)nn(C(C)(C)Cc2ccccc2)c1O` [Compound No. 4-89, 1-(5-Hydroxy-3-isopropyl-1-(2-methyl-1-phenylpropan-2-yl)-1H-pyrazol-4-yl)ethanone O-methyl oxime], the Expansion efficiency result was “C (C for expansion efficiencies of at least 1.5 and less than 3)”.
